Data taken from patent publication EP0688336B1, “PEPTIDE BORONIC ACID DERIVATIVES HAVING PROTEASE INHIBITING ACTIVITY” (Novartis AG, priority 1993, dated 1994).

Key:
[1] = tested on: pooled citrated human plasma; test: In vitro coagulation assay: activated partial thromboplastin time (APTT); format: biochemical; conditions: Actin-FS, 4 min at 37°C, CaCl2
Protocol: (§1) In vitro coagulation assays are performed with pooled citrated human plasma. Substance to be tested or solvent are incubated with plasma for 10 min at 37°C prior to assay. Thrombin time(TT) determinations are performed at a final thrombin concentration of 5 U/ml. Activated partial thromboplastin time (APTT) is determined by incubating 0.1 ml plasma ± substance to be tested with 0.1 ml purified soya bean phospholipid in ellagic acid (Actin-FS) for 4 min at 37°C and followed by the addition of 0.1 ml CaCl2 (50mM). […] With the compound of Example 1, prolongation of TT above 300 sec is achieved at 1.8 µM, elevation of APTT to 2x the control value is achieved at 4.4 µM.

[2] = tested on: Washed human platelets; test: In vitro platelet aggregation assay induced by thrombin; format: cell-based; conditions: aggregation induced by 1 nM human thrombin
Protocol: Washed human platelets are prepared by a modification of the method of Ardlie ([…]. 1970, 19:7-17). Washed platelet suspension (0.46 ml) is kept at 37°C and stirred at 1100 rpm. After the addition of the substance to be tested or solvent. the platelets are maintained for 2 min before aggregation is induced by 1 nM human thrombin. The extent of platelet aggregation is quantitated by the maximum aggregation amplitude and inhibition of aggregation rate observed in the absence of inhibitor.

[3] = tested on: pooled citrated human plasma; test: In vitro coagulation assay: thrombin time (TT); format: biochemical; conditions: final thrombin concentration 5 U/ml; 10 min at 37°C preincubation
Protocol: as §1

[4] = tested on: thrombus formation; test: Arterio-venous shunt thrombosis model; format: in vivo; conditions: rat
Protocol: In the arterio-venous shunt thrombosis model in the rat, a modification of the model described by Butler et al. (Blood Coag. Fibrinol., Vol. 3, (1992), page 155), the compounds of the invention prevent thrombus formation in a dose dependent manner. Using the compound of Example 1, thrombus formation is inhibited by 21% at a dose of 0.3 mg/kg i.v. and blocked by a dose of 3 mg/kg i.v.

[5] = biological target: thrombin (Homo sapiens, UniProt P00734); conditions: cited from earlier work
[6] = in vivo; cited from earlier work

SMILES | concentration at which elevation of APTT to 2x the control value is achieved [1] | IC50 [2] | concentration at which prolongation of TT above 300 sec is achieved [3] | thrombus formation is inhibited ([4]; dose of 0.3 mg/kg i.v.) | thrombus formation ([4]; dose of 3 mg/kg i.v.) | inhibition in vitro [5] | LD50 value [6]
CC(C)(C)OC(=O)NC(C[Si](C)(C)C)C(=O)N1CCCC1C(=O)NC(CCCCO)B1OC2CC3CC(C3(C)C)C2(C)O1 [Example 1, Boc-D-TMSal-Pro-NH-CH[(CH2)4OH]B-OPin] | 4.4 µM | 3.8 nM | 1.8 µM | 21% | blocked | – | –
NC(N)=NCCC[C@H](NC(=O)[C@@H]1CCCN1C(=O)[C@H](N)Cc1ccccc1)C(=O)CCl [D-Phe-Pro-Arg-CH2Cl] | – | – | – | – | – | ~10^-8 M | –
N=C(N)NCCC[C@@H](C=O)NC(=O)[C@@H]1CCCN1C(=O)[C@H](N)Cc1ccccc1 [D-Phe-Pro-Arginal] | – | – | – | – | – | ~10^-8 M | quite a low
